33 molecules from ChEMBL document CHEMBL1130926, “Novel H3 receptor antagonists. Sulfonamide homologs of histamine” (Bioorg Med Chem Lett, 1998) can be followed below.

What is called Ki is a measure of affinity in units of concentration, obtained from inhibition or displacement. As a reminder, the ED50 is the dose at which the effect has come halfway, by size or by number of responders. For orientation: inhibition means the percentage by which the read-out fell short of the control.

Assay [1] concerns the target T1, Histamine H3 receptor (Cavia porcellus, UniProt Q9JI35). Kind of assay: Inhibition of [3H]Nalpha-methylhistamine binding to H3 receptor in guinea-pig brain membranes. The class given is cell membranes, Membrane.
Assay [2] deals with T1, Histamine H3 receptor. Kind of assay: H3 -antagonist potency determined in electrically stimulated guinea-pig ileum. Format: functional, tissue-based. To be noted: read-out: pA2 (converted).
For assay [3], the target named is Histamine H3 receptor (Cavia porcellus) (UniProt Q9JI35). The assay can be described thus: Evaluated in vivo for its H3 receptor antagonist activity in the CNS hypertension model. The class given is functional, organism-based.
The next assay concerns the target Histamine H1 receptor (Cavia porcellus, UniProt P31389). Kind of assay: Evaluated for the percent binding affinity against H1 receptor by an H1 histamine-mediated bronchospasm. Further details: concentration or dose not given beside the values.
A further assay relates to Cavia porcellus. Kind of assay: Compound was evaluated in vivo for its H3 receptor antagonist activity in the CNS hypertension model; NA: Not active. Format: functional, organism-based.
The target of assay [4] is Histamine H3 receptor (Cavia porcellus) (UniProt Q9JI35). Kind of assay: Evaluated in vivo for its H3 receptor antagonist activity in the CNS hypertension model at 3 mg/kg dose. The class given is functional, organism-based. Further details: dose 3 mg/kg.

Each structure is given as a SMILES string. The source made the active and inactive calls. The calls are words filed in the database; no cut-off is given here.

Sequence of Histamine H1 receptor (P31389 whole entry): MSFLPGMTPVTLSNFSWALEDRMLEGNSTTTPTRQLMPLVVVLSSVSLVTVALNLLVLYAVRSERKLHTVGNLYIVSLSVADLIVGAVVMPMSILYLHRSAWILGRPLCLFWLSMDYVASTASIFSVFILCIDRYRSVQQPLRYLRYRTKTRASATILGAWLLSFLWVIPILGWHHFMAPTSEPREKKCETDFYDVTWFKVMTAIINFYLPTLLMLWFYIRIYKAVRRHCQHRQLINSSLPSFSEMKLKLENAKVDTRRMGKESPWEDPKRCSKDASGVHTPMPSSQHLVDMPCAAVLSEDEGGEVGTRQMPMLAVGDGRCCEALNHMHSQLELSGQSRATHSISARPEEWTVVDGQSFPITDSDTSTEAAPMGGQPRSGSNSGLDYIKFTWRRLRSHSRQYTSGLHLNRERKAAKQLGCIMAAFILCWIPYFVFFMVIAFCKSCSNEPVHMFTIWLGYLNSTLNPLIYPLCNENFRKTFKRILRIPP
T1 sequence (Q9JI35 whole entry): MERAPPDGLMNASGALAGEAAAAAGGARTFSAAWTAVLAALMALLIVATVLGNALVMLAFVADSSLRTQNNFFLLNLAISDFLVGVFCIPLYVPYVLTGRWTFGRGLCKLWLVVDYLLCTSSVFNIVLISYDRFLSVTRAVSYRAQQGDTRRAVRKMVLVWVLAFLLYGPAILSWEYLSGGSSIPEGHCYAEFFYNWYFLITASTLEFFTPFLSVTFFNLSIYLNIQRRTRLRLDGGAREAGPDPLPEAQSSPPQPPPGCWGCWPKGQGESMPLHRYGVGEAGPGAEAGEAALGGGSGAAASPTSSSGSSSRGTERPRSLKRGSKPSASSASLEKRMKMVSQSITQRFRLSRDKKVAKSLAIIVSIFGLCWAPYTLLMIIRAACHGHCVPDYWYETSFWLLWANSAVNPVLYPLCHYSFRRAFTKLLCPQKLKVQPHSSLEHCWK
Sequence of Histamine H3 receptor (Cavia porcellus) (Q9JI35 whole entry): as above

As for `O=[N+]([O-])c1ccccc1CS(=O)(=O)NCCCCc1cnc[nH]1`, the affinity at Histamine H3 receptor [1], expressed as Ki, was 42 nM.
On to `O=S(=O)(NCCCCc1cnc[nH]1)c1ccccc1`, for which, at Histamine H3 receptor [2], the Kb was 31.6 nM. On Histamine H3 receptor [1], affinity was put at a Ki of 10.5 nM.
`O=S(=O)(NCCCCc1c[nH]cn1)c1ccc(Cl)cc1` had an ED50 in assay [3] of 2.2 mg/kg. Also, the inhibition at Histamine H1 receptor was found to be 48%.
For `O=S(=O)(NCCCCCc1c[nH]cn1)c1ccc(Cl)cc1` the same measures were 3 mg/kg and 37%.
Regarding `O=S(=O)(NCCCCCc1c[nH]cn1)c1ccc(OC(F)(F)F)cc1`, the Kb on Histamine H3 receptor [2] is 10 nM. The molecule further displayed a Ki at Histamine H3 receptor [1] of 24.3 nM. Further, on Histamine H1 receptor, the inhibition is on record as 1%.
Take `O=S(=O)(c1ccc(Cl)cc1)N(CCCCc1c[nH]cn1)CCCCn1ccnc1`: the Kb at Histamine H3 receptor [2] is 7.94 nM. Affinity on Histamine H3 receptor [1] was put at a Ki of 2.5 nM.
`O=S(=O)(NCCCCc1cnc[nH]1)c1cccs1` came in with a Ki at Histamine H3 receptor [1] of 45 nM.
Turning to `O=S(=O)(NCCCCCc1cnc[nH]1)c1ccc(Cl)cc1`, the Kb at Histamine H3 receptor [2] was 100 nM. The Ki on Histamine H3 receptor [1] was 11.5 nM.
`O=S(=O)(NCCCCc1c[nH]cn1)c1ccc(OC(F)(F)F)cc1`: the ED50 entry in the assay on Cavia porcellus was “inactive”. Besides, at Histamine H3 receptor [2], the Kb was 10 nM. This molecule also registered a Ki at Histamine H3 receptor [1] of 7 nM.
For the molecule `Cn1cc[n+](S(=O)(=O)NCCCCc2c[nH]cn2)c1`, the Ki on Histamine H3 receptor [1] was 43 nM.
`Nc1ccc(S(=O)(=O)NCCCCc2c[nH]cn2)cc1` returned a Ki at Histamine H3 receptor [1] of 99 nM.
As for `CC(C)(C)c1ccc(S(=O)(=O)NCCCCc2c[nH]cn2)cc1`, the 50% effect level in assay [3] (ED50) was put at a dose of 3 mg/kg. In addition, on Histamine H3 receptor [2], the Kb was 15.8 nM. On Histamine H3 receptor [1], this molecule registered a Ki of 16.5 nM. The same molecule returned an inhibition on Histamine H1 receptor of 32%.
For `O=S(=O)(NCCCc1cnc[nH]1)c1cccs1`, affinity at Histamine H3 receptor [1] was put at a Ki of 550 nM.
`O=S(=O)(NCCCCc1c[nH]cn1)c1ccccc1`: the ED50 entry in the assay with Cavia porcellus was “inactive”. The inhibition on Histamine H1 receptor was 5%.
For the molecule `O=[N+]([O-])c1ccc(S(=O)(=O)NCCCCc2cnc[nH]2)cc1`, the Kb at Histamine H3 receptor [2] is 20 nM. The Ki on Histamine H3 receptor [1] worked out at 16.5 nM.
Molecule `O=S(=O)(NCCCc1c[nH]cn1)c1ccc(Cl)cc1` returned a Ki on Histamine H3 receptor [1] of 380 nM. The molecule also registered an inhibition on Histamine H1 receptor of 21%.
Regarding `CC(C)(C)c1ccc(S(=O)(=O)NCCCc2c[nH]cn2)cc1`, the Ki at Histamine H3 receptor [1] is 45.5 nM. Moreover, the inhibition at Histamine H1 receptor is given as 30%.
Turning to `O=S(=O)(NCCCCCc1c[nH]cn1)c1ccccc1`, the Kb at Histamine H3 receptor [2] is 63.1 nM. Moreover, on Histamine H3 receptor [1], the Ki turned out to be 24.5 nM. Moreover, the inhibition at Histamine H1 receptor turned out to be 19%.
Turning to `COc1ccc(S(=O)(=O)NCCCCc2cnc[nH]2)cc1`, the Ki at Histamine H3 receptor [1] turned out to be 51 nM.
As for `O=S(=O)(NCCCCc1cnc[nH]1)c1ccc(Cl)cc1`, the Kb at Histamine H3 receptor [2] is 12.6 nM. Also, the affinity at Histamine H3 receptor [1], expressed as Ki, was 9 nM.
`CC(C)S(=O)(=O)NCCCCc1cnc[nH]1`: on Histamine H3 receptor [2], the Kb is 63.1 nM. At Histamine H3 receptor [1], this molecule returned a Ki of 22 nM.
For `Cc1ccc(S(=O)(=O)NCCCCc2cnc[nH]2)cc1` the same measures were 25.1 nM and 17 nM.
Regarding `CN(CCCCc1c[nH]cn1)S(=O)(=O)c1ccc(Cl)cc1`, the inhibition was 43% in assay [4] and 32% on Histamine H1 receptor. Also, the Kb on Histamine H3 receptor [2] is 5.01 nM. The same molecule came in with a Ki at Histamine H3 receptor [1] of 4 nM.
Turning to `O=[N+]([O-])c1ccc(S(=O)(=O)NCCCCc2c[nH]cn2)cc1`, the ED50 result in the assay on Cavia porcellus was “inactive”. The inhibition on Histamine H1 receptor stood at 24%.
The molecule `O=S(=O)(NCCCCc1c[nH]cn1)c1cccc(Cl)c1` registered an inhibition in assay [4] of 8%. In addition, the Kb at Histamine H3 receptor [2] was 50.1 nM. Further, on Histamine H3 receptor [1], the Ki amounted to 8.5 nM.
`O=S(=O)(c1ccc(Cl)cc1)N(CCCCc1c[nH]cn1)Cc1ccc(Cl)cc1` displayed a 50% effective dose (ED50) in assay [3] of 3 mg/kg. In addition, the Kb on Histamine H3 receptor [2] is 15.8 nM. In addition, at Histamine H3 receptor [1], the Ki amounted to 24 nM. For the same molecule, the inhibition at Histamine H1 receptor was 45%.
For `O=S(=O)(NCCCCc1c[nH]cn1)c1ccc(F)cc1`, the Kb at Histamine H3 receptor [2] was 158 nM. Also, the Ki on Histamine H3 receptor [1] is 20.5 nM. Moreover, on Histamine H1 receptor, the inhibition is listed as 19%.
For `O=S(=O)(NCCCCc1c[nH]cn1)c1ccc(C(F)(F)F)cc1`, the 50% effect level in assay [3] (ED50) was put at a dose of 3 mg/kg. Also, the Kb on Histamine H3 receptor [2] was 3.98 nM. For the same molecule, the Ki at Histamine H3 receptor [1] stood at 10 nM. At Histamine H1 receptor, the inhibition is given as 1%.
In assay [3], `O=[N+]([O-])c1ccc(S(=O)(=O)NCCCCCc2c[nH]cn2)cc1` showed an ED50 of 2.7 mg/kg. For the same molecule, the Kb at Histamine H3 receptor [2] was 7.94 nM. The molecule also registered a Ki on Histamine H3 receptor [1] of 5.5 nM. The same molecule registered an inhibition at Histamine H1 receptor of 25%.
The molecule `Cc1ccc(S(=O)(=O)NCCCCc2c[nH]cn2)cc1` gave an inhibition in assay [4] of 16%.
Turning to `O=S(=O)(Cc1ccccc1)NCCCCc1c[nH]cn1`, the inhibition in assay [4] is 17%; at Histamine H1 receptor, 3%. Also, at Histamine H3 receptor [2], the Kb was 31.6 nM. On Histamine H3 receptor [1], this molecule yielded a Ki of 6 nM.
In the case of `O=[N+]([O-])c1ccc(S(=O)(=O)NCCCc2c[nH]cn2)cc1`, the Ki on Histamine H3 receptor [1] is 93 nM. Besides, the inhibition at Histamine H1 receptor was found to be 36%.
For `CC(C)(C)c1ccc(S(=O)(=O)NCCCCCc2c[nH]cn2)cc1`, the inhibition in assay [4] worked out at 40%; at Histamine H1 receptor it was 14%. At Histamine H3 receptor [2], the Kb was 10 nM. Further, the Ki on Histamine H3 receptor [1] came out at 5 nM.
